Earlier results as cited in patent US20080288176A1 (priority 2005, published 2008).

Settings: in vitro; Knaus et al., 2005; cited from earlier work

In the case of `COc1ccc2cc(C(C)C(=O)OCON=[N+]([O-])N3CCCC3)ccc2c1` (stereo not shown) [PYRO-NO-NAP, pyrrolidino-diazeniumdiolate-naproxen], the “NO generating capacity relative to AZD 3582” value is given as 13 times.
